Assay results taken from paper PMC8806947, “β-galactosidase GALA from Bacillus circulans with high transgalactosylation activity” (Bioengineered, 2021).

How the values were obtained:
[1] = biological target: T1, GALA (β-galactosidase from Bacillus circulans) (Niallia circulans, UniProt E5RWQ2); assay: HPLC and TLC of hydrolysis and transgalactosylation products; assay type: biochemical; conditions: 200-500 g/L lactose, 0.1 M phosphate-citrate pH 5-7, 30-50 °C; also galactosyl acceptor
T1 construct: gene bga; codon-optimised synthetic gene (galAm) with His-tag, secreted from Pichia pastoris GS115 (pPICZαA); HisTrap and gel filtration; predicted 1703 residues, 190 kDa; glycosylated

[2] = biological target: T1, GALA (β-galactosidase from Bacillus circulans); assay: o-nitrophenol release, absorbance at […] nm; assay type: biochemical; conditions: 0.25% oNPG, 20 mM phosphate-citrate pH 6.0, 45 °C, 15 min

T1 sequence (E5RWQ2 24-1737): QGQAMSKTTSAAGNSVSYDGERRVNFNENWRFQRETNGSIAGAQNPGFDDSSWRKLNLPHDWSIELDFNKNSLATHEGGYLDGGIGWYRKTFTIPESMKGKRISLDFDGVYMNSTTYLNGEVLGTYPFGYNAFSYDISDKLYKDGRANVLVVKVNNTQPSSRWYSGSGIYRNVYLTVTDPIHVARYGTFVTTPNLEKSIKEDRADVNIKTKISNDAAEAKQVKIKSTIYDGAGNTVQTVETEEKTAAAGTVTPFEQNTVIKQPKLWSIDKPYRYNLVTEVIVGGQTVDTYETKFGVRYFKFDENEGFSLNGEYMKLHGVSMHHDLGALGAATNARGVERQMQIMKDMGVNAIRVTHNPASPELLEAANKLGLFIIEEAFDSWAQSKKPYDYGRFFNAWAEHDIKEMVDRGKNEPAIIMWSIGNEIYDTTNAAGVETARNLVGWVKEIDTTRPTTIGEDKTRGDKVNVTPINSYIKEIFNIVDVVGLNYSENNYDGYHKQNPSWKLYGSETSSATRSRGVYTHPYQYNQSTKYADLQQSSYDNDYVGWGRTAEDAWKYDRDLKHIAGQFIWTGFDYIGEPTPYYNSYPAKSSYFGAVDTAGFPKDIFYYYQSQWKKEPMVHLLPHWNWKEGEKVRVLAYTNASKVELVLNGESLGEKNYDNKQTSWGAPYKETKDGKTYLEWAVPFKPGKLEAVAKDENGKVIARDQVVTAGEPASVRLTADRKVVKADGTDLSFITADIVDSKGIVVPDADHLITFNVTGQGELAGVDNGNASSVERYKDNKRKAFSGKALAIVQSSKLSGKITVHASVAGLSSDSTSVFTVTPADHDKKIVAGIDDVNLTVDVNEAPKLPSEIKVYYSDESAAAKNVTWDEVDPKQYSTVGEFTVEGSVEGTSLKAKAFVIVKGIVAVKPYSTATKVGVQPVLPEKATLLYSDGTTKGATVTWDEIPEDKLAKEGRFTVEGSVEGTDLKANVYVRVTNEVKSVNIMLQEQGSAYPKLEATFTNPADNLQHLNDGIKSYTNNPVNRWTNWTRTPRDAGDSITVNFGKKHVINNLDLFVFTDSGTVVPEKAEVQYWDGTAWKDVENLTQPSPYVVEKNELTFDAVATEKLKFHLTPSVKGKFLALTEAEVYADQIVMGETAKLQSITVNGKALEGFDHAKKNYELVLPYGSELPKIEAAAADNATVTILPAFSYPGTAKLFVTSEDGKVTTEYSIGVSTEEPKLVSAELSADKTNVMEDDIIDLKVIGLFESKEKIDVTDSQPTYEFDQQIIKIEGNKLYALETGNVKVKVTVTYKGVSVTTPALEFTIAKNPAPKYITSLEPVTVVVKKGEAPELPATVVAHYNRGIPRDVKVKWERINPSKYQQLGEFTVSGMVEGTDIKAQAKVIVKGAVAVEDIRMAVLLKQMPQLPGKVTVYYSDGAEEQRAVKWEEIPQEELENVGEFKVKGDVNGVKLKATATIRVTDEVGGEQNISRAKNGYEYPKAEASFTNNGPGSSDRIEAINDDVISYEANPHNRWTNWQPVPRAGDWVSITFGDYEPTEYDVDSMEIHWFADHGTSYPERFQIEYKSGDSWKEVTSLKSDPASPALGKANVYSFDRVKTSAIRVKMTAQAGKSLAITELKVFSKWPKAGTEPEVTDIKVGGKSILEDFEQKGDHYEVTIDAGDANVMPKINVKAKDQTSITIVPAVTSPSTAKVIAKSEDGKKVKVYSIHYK

Row | Compound | HPLC and TLC of hydrolysis and transgalactosylation products [1] | o-nitrophenol release, absorbance at 420 nm [2]
1 | OC[C@H]1O[C@@H](O[C@H]2[C@H](O)[C@@H](O)C(O)O[C@@H]2CO)[C@H](O)[C@@H](O)[C@H]1O (some centres unmarked) [lactose] | enzymatic transgalactosylation activity of the β-galactosidase, using lactose as the substrate | 
2 | O=[N+]([O-])c1ccccc1O[C@@H]1O[C@H](CO)[C@H](O)[C@H](O)[C@H]1O [O-nitrophenyl-β-D-galactopyranoside] |  | The experiments were carried out three times using ONPG as the substrate
